The record followed here is patent publication US20190375708A1 (VenatoRx Pharmaceuticals, Inc., priority 2018, published 2019).

By CC50 is commonly meant the concentration that lowers cell viability or growth by half. Read a high CC50 as better tolerance by the cells. The term EC50 denotes the midpoint of the concentration-response curve.

Data set [1] in a line: In vitro cytotoxicity assay (MTT cell viability) in HepG2 cells. It counts as cell-based, human. To be noted: human. In a few lines: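 HepG2 seeded overnight, then 7-day compound exposure (30 μM–1.0 nM, half-log steps), 37 °C. MTT 3-4 h, DMSO solubilization, A492. % of vehicle → CC50, 4-PL fit.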
The test system of data set [2] is HBV replication in HepAD38 cells. Briefly: Anti-HBV replication assay in HepAD38 cells (QPCR of extracellular HBV DNA). It counts as cell-based, HBV (genotype D, serotype ayw). To be noted: Hepatitis B virus, 168 h, 7 days incubation, extracellular HBV DNA by QPCR, read-out: Anti-HBV EC50. In a few lines: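 Steps: seed HepAD38 overnight without tetracycline; refresh medium and add 1 log10 serial dilutions ([…]); incubate 7 days at 37 °C; quantify supernatant HBV DNA by QPCR; derive EC50 from a 4-parameter dose-response fit.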

In data set [1], `Cc1cc(NC(=O)c2c(C)c(C(=O)C(=O)N[C@H]3CC[C@@H](O)CC3)n(C)c2C)cc(Cl)n1` [Example 628, N-(2-chloro-6-methylpyridin-4-yl)-5-(2-(((1s,4s)-4-hydroxycyclohexyl)amino)-2-oxoacetyl)-1,2,4-trimethyl-1H-pyrrole-3-carboxamide] came in with a CC50 at 7 days of more than 30 µM. Also, the EC50 in data set [2] is less than 0.05 µM.
The like results for `C#CCO[C@H]1CC[C@@H](NC(=O)C(=O)c2c(C)c(C(=O)Nc3ccc(F)c(C)c3)c(C)n2C)CC1` [Example 629, N-(4-fluoro-3-methylphenyl)-1,2,4-trimethyl-5-(2-oxo-2-(((1s,4s)-4-(prop-2-yn-1-yloxy)cyclohexxyl)amino)acetyl)-1H-pyrrole-3-carboxamide] were, in that order, more than 30 µM and less than 0.05 µM.
As to `Cc1cc(NC(=O)c2c(C)c(C(=O)C(=O)NC3(c4nc(-c5ccncc5)no4)CCCCC3)n(C)c2C)ccc1F` [Example 630, N-(4-fluoro-3-methylphenyl)-1,2,4-trimethyl-5-(2-oxo-2-((1-(3-(pyridin-4-yl)-1,2,4-oxadiazol-5-yl)cyclohexyl)amino)acetyl)-1H-pyrrole-3-carboxamide], the CC50 at 7 days in data set [1] is more than 30 µM. In data set [2], the EC50 is less than 0.05 µM.
In the case of `Cc1cc(NC(=O)c2c(C)c(C(=O)C(=O)NC3(c4nc(-c5cnccn5)no4)CCCCC3)n(C)c2C)ccc1F` [Example 631, N-(4-fluoro-3-methylphenyl)-1,2,4-trimethyl-5-(2-oxo-2-((1-(3-(pyrazin-2-yl)-1,2,4-oxadiazol-5-yl)cyclohexyl)amino)acetyl)-1H-pyrrole-3-carboxamide], in data set [1], the CC50 at 7 days was more than 30 µM. For the same compound, the EC50 in data set [2] was less than 0.05 µM.
As for `Cc1nc(C2(NC(=O)C(=O)c3c(C)c(C(=O)Nc4ccc(F)c(C)c4)c(C)n3C)CCCCC2)no1` [Example 632, N-(4-fluoro-3-methylphenyl)-1,2,4-trimethyl-5-(2-((1-(5-methyl-1,2,4-oxadiazol-3-yl)cyclohexyl)amino)-2-oxoacetyl)-1H-pyrrole-3-carboxamide], the CC50 at 7 days in data set [1] was more than 30 µM. For the same compound, the EC50 in data set [2] was less than 0.05 µM.
`Cc1cc(NC(=O)c2c(C)c(C(=O)C(=O)NC3(c4cccs4)CCCCC3)n(C)c2C)ccc1F` [Example 633, N-(4-fluoro-3-methylphenyl)-1,2,4-trimethyl-5-(2-oxo-2-((1-(thiophen-2-yl)cyclohexyl)amino)acetyl)-1H-pyrrole-3-carboxamide] registered a CC50 at 7 days in data set [1] of more than 30 µM. Also, the EC50 in data set [2] is less than 0.05 µM.
On the same counts, the results for `Cc1cc(NC(=O)c2c(C)c(C(=O)C(=O)NC3(c4noc(-c5cccs5)n4)CCCCC3)n(C)c2C)ccc1F` [Example 634] are more than 30 µM and less than 0.05 µM.
On the same counts, the results for `Cc1csc(C2(NC(=O)C(=O)c3c(C)c(C(=O)Nc4ccc(F)c(C)c4)c(C)n3C)CCCC2)n1` [Example 635, N-(4-fluoro-3-methylphenyl)-1,2,4-trimetthyl-5-(2-((1-(4-methylthiazol-2-yl)cyclopentyl)amino)-2-oxoacetyl)-1H-pyrrole-3-carboxamide] are more than 30 µM and less than 0.05 µM.
Regarding `Cc1cc(NC(=O)c2c(C)c(C(=O)C(=O)NC3(c4nnn[nH]4)CCCC3)n(C)c2C)ccc1F` [Example 636, 5-(2-((1-(1H-tetrazol-5-yl)cyclopentyl)amino)-2-oxoacetyl)-N-(4-fluoro-3-methylphenyl)-1,2,4-trimethyl-1H-pyrrole-3-carboxamide], the CC50 at 7 days in data set [1] is more than 30 µM. The EC50 in data set [2] is less than 0.05 µM.
As for `Cc1cc(NC(=O)c2c(C)c(C(=O)C(=O)NC3(c4noc(C5CC5)n4)CCCC3)n(C)c2C)ccc1F` [Example 637, 5-(2-((1-(5-cyclopropyl-1,2,4-oxadiazol-3-yl)cyclopentyl)amino)-2-oxoacetyl)-N-(4-fluoro-3-methylphenyl)-1,2,4-trimetthyl-1H-pyrrole-3-carboxamide], the CC50 at 7 days in data set [1] is more than 30 µM. Further, the half-maximal effective concentration (EC50) in data set [2] is less than 0.05 µM.
The like results for `Cc1cc(NC(=O)c2c(C)c(C(=O)C(=O)NC3(C(F)(F)F)CCOCC3)n(C)c2C)cc(Cl)n1` [Example 638, N-(2-chloro-6-methylpyridin-4-yl)-1,2,4-trimethyl-5-(2-oxo-2-((4-(trifluoromethyl)etetrahydro-2H-pyran-4-yl)amino)acetyl)-1H-pyrrole-3-carboxamide] were, in that order, more than 30 µM and less than 0.05 µM.
The like results for `CC(=O)N1CCC[C@@H](NC(=O)C(=O)c2c(C)c(C(=O)Nc3ccc(F)c(C)c3)c(C)n2C)C1` [Example 639, (R)-5-(2-((1-acetylpiperidin-3-yl)amino)-2-oxoacetyl)-N-(4-fluoro-3-methylphenyl)-1,2,4-trimethyl-1H-pyrrole-3-carboxamide] were, in that order, more than 30 µM and less than 0.05 µM.
As for `Cc1cc(NC(=O)c2c(C)c(C(=O)C(=O)N[C@@H]3CCCN(S(C)(=O)=O)C3)n(C)c2C)ccc1F` [Example 640], the CC50 at 7 days in data set [1] fell in the range of 5 to 30 µM. Also, in data set [2], the EC50 is less than 0.05 µM.
The like results for `CC(=O)N1CCC[C@H](NC(=O)C(=O)c2c(C)c(C(=O)Nc3ccc(F)c(C)c3)c(C)n2C)C1` [Example 641, (S)-5-(2-((1-acetylpiperidin-3-yl)amino)-2-oxoacetyl)-N-(4-fluoro-3-methylphenyl)-1,2,4-trimethyl-1H-pyrrole-3-carboxamide] were, in that order, more than 30 µM and less than 0.05 µM.
In turn, `Cc1cc(NC(=O)c2c(C)c(C(=O)C(=O)N[C@H]3CCCN(S(C)(=O)=O)C3)n(C)c2C)ccc1F` [Example 642, (S)-N-(4-fluoro-3-methylphenyl)-1,2,4-trimethyl-5-(2-((1-(methylsulfonyl)piperidin-3-yl)amino)-2-oxoacetyl)-1H-pyrrole-3-carboxamide] displayed a half-maximal cytotoxic concentration (CC50) at 7 days in data set [1] of 5 to 30 µM. In data set [2], the EC50 was less than 0.05 µM.
In data set [1], `CC(=O)N1C[C@@H]2[C@H](C1)[C@H]2NC(=O)C(=O)c1c(C)c(C(=O)Nc2ccc(F)c(C)c2)c(C)n1C` [Example 643, 5-(2-(((1R,5S,6s)-3-acetyl-3-azabicyclo[3.1.0]hexan-6-yl)amino)-2-oxoacetyl)-N-(4-fluoro-3-methylphenyl)-1,2,4-trimethyl-1H-pyrrole-3-carboxamide] came in with a CC50 at 7 days of more than 30 µM. In addition, in data set [2], the EC50 lay in the range of 0.05 to 0.499 µM.
Turning to `Cc1cc(NC(=O)c2c(C)c(C(=O)C(=O)N[C@H]3[C@@H]4CN(S(C)(=O)=O)C[C@@H]43)n(C)c2C)ccc1F` [Example 644, N-(4-fluoro-3-methylphenyl)-1,2,4-trimethyl-5-(2-(((1R,5S,6s)-3-(methylsulfonyl)-3-aabicyclo[3.1.0]hexan-6-yl)amino)-2-oxoacetyl)-1H-pyrrole-3-carboxamide], in data set [1], the CC50 at 7 days lay in the range of 5 to 30 µM. The concentration for a half-maximal effect (EC50) in data set [2] was less than 0.05 µM.
With `CC(=O)N1CC(C)(NC(=O)C(=O)c2c(C)c(C(=O)Nc3ccc(F)c(C)c3)c(C)n2C)C1` [Example 645, 5-(2-((1-acetyl-3-methylazetidin-3-yl)amno)-2-oxoacetyl)-N-(4-fluoro-3-methylphenyl)-1,2,4-trimethyl-1H-pyrrole-3-carboxamide], the CC50 at 7 days in data set [1] is more than 30 µM. The EC50 in data set [2] was less than 0.05 µM.
The like results for `Cc1cc(NC(=O)c2c(C)c(C(=O)C(=O)NCCc3ccsc3)n(C)c2C)ccc1F` [Example 646, N-(4-fluoro-3-methylphenyl)-1,2,4-trimethyl-5-(2-oxo-2-((2-(thiophen-3-yl)ethyl)amino)acetyl)-1H-pyrrole-3-carboxamide] were, in that order, 5 to 30 µM and less than 0.05 µM.
